Experiments:
[1] = pH of the simplified relaxing composition; assay type: physicochemical
Method: (§1) A simplified relaxing composition was prepared, containing, as relaxing active agent, 1,1-dimethylbiguanide (Registry Number [1115-70-4]) at a concentration of 0.75M in water. The pH of the composition was 13.6. The composition was applied to naturally curly/frizzy African hair for 15 minutes at a temperature of 30° C.
as §1, with “of 0.5M” for “of 0.75M”, “was 13.5. This” for “was 13.6. The”, “for 25” for “for 15”
(§2) A simplified relaxing composition was prepared, containing as relaxing active agent, 1,3,4,6,7,8-hexahydro-2H-pyrimido[1,2-a]pyrimidine (Registry Number [5807-14-7]) at a concentration of 0.7M in water. The pH of the composition was 13.5. This composition was applied to naturally curly/frizzy African hair for 15 minutes at a temperature of 30° C.
as §2, with “0.5M” for “0.7M”, “13.4.” for “13.5.”, “25” for “15”

[2] = Relaxing of naturally curly/frizzy African hair with a simplified aqueous relaxing composition
Method: as §1
as §1, with “of 0.5M” for “of 0.75M”, “was 13.5. This” for “was 13.6. The”, “for 25” for “for 15”
as §2
as §2, with “0.5M” for “0.7M”, “13.4.” for “13.5.”, “25” for “15”

[3] = 0.5M in water (Examples 2 and 4)

CN(C)C(=N)NC(=N)N [1,1-dimethylbiguanide]
pH of the composition [1, 3]: 13.5 | pH of the composition ([1]; 0.75M in water (Example 1)): 13.6 | hair relaxing result (relaxing, combing/styling, feel) ([2]; 0.5M in water, pH 13.5, applied 25 minutes at 30° C. (Example 2)): efficiently relaxed, easy to comb and style, and felt soft | hair relaxing result (relaxing, combing/styling, feel) ([2]; 0.75M in water, pH 13.6, applied 15 minutes at 30° C. (Example 1)): efficiently relaxed, easy to comb and style, and felt soft

C1CN=C2NCCCN2C1 [1,3,4,6,7,8-hexahydro-2H-pyrimido[1,2-a]pyrimidine]
pH of the composition [1, 3]: 13.4 | pH of the composition ([1]; 0.7M in water (Example 3)): 13.5 | hair relaxing result (relaxing, combing/styling, feel) ([2]; 0.5M in water, pH 13.4, applied 25 minutes at 30° C. (Example 4)): efficiently relaxed, easy to comb and style, and felt soft | hair relaxing result (relaxing, combing/styling, feel) ([2]; 0.7M in water, pH 13.5, applied 15 minutes at 30° C. (Example 3)): efficiently relaxed, easy to comb and style, and felt soft

— patent US20050136017A1, “Hair relaxing composition comprising at least one non-hydroxide imine” (priority 2003, published 2005)
